In patent US20250064941A1, “SIGLEC LIGANDS, CONJUGATES, AND METHODS OF USE THEREOF” (Osprey Biopharmaceuticals, Inc., priority 2023, published 2025):

How the values were obtained:
[1] = molecular target: T1, mouse Siglec-2-Fc-Avi (CD22) (Mus musculus, UniProt P35329); assay: SPR binding affinity to mouse CD22; conditions: steady-state analysis
T1 construct: made in house
T1 sequence (P35329 22-708 limits assumed): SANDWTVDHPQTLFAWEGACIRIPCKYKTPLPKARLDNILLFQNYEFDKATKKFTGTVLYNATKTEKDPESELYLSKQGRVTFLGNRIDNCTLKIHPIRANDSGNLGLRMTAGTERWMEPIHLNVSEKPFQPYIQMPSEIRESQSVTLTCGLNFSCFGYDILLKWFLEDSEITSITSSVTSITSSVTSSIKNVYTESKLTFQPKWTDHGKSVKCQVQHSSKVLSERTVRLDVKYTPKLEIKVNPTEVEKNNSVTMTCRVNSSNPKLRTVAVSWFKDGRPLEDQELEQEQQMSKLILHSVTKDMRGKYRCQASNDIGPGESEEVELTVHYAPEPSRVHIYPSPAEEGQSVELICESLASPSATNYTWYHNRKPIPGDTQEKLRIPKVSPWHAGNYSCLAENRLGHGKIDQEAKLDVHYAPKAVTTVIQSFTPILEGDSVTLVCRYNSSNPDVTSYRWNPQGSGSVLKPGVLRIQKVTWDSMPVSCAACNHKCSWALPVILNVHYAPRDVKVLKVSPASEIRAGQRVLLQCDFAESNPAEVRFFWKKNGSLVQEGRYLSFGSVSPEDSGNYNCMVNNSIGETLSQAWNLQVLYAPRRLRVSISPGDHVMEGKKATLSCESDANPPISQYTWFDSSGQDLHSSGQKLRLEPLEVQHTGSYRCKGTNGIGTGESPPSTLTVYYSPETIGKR
Outline: (§1)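 Native sialic acid residues are removed from the receptor enzymatically (4 hours at 37° C.) prior to streptavidin capture of the biotinylated protein. Ligand compounds then flow over in HEPES-buffered saline, pH 7.5, containing 0.05% Tween-20 and 1% DMSO, and binding is evaluated at steady state.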

[2] = molecular target: T2, human Siglec-2/CD22 protein (Homo sapiens, UniProt P20273); assay: SPR binding affinity to human CD22; conditions: steady-state analysis
T2 construct: purchased Acro Biosystems SI2-H82E3
T2 sequence (P20273 20-847): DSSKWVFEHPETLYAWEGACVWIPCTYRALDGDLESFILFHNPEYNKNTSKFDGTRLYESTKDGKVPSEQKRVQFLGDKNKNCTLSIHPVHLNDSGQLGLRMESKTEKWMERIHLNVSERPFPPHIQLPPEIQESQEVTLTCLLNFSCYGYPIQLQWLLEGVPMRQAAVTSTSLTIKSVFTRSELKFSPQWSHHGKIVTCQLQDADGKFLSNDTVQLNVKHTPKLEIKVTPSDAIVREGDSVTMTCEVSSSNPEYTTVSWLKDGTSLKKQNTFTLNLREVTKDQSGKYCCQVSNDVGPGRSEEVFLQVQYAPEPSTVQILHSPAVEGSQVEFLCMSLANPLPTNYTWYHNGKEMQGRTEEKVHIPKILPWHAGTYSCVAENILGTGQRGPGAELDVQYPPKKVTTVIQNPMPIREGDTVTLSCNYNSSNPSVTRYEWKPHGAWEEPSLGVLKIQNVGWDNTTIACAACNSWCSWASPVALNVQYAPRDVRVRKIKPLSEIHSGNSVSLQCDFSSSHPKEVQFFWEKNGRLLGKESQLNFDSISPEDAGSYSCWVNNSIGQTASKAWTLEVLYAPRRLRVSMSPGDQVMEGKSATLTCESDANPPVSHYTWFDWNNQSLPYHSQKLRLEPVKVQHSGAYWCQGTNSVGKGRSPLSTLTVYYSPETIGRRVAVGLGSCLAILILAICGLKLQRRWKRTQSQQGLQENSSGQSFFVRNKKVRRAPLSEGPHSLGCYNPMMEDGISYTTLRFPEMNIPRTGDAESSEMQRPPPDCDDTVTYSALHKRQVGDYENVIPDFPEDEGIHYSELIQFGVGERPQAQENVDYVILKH
Outline: as §1

cynomolgus Siglec-2/CD22 = cynomolgus Siglec-2/CD22 (Macaca fascicularis, UniProt A0A2K5WCZ6); assay: biochemical; assay type: binding; conditions: SPR, steady-state analysis; read-out: Affinity cyno CD22
Outline: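 SPR with desialylated (SialoExo, 4 h, 37° C.) cynomolgus CD22 amine-coupled to a CM5 chip. Running buffer 10 mM HEPES, 150 mM NaCl, 0.05% Tween-20, pH 7.5, 1% DMSO, with solvent correction; 120 s dissociation. Affinities from steady-state analysis.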

cynomolgus Siglec-2/CD22, sequence (A0A2K5WCZ6 entry or part of it): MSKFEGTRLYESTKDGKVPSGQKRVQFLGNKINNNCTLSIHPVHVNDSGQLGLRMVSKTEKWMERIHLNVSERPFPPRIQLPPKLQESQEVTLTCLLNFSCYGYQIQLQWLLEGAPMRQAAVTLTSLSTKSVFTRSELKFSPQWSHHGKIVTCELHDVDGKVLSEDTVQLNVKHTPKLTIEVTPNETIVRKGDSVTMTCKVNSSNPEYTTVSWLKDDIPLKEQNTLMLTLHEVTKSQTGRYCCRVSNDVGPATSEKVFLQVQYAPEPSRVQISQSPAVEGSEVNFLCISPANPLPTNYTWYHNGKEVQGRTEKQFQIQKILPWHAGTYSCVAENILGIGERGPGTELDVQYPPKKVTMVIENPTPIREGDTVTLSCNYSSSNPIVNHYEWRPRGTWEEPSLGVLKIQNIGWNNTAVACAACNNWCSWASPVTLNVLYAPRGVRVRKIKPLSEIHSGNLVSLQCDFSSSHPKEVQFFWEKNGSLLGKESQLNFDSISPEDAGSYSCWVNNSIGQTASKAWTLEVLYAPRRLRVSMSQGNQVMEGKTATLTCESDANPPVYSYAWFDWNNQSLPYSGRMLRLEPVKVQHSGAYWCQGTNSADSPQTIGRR

| SMILES | Kd [1] [µM] | Kd [2] [µM] | Kd (cynomolgus Siglec-2/CD22) [µM] |
| --- | --- | --- | --- |
| C#CCCOc1ccc(CO[C@]2(C(=O)O)C[C@H](O)[C@@H](NC(=O)CO)[C@H]([C@H](O)[C@H](O)CNC(=O)C(F)(F)c3ccccc3)O2)cc1 [Compound 172, (2R,4S,5R,6R)-2-((4-(but-3-yn-1-yloxy)benzyl)oxy)-6-((1R,2R)-3-(2,2-difluoro-2-phenylacetamido)-1,2-dihydroxypropyl)-4-hydroxy-5-(2-hydroxyacetamido)tetrahydro-2H-pyran-2-carboxylic acid] | 1 to 10 | 1 to 10 | 1 to 10 |
| C#CCCOc1ccc(CO[C@]2(C(=O)O)C[C@H](O)[C@@H](NC(=O)CO)[C@H]([C@H](O)[C@H](O)CNC(=O)C3(c4ccccc4)CC3)O2)cc1 [Compound 173, (2R,4S,5R,6R)-2-((4-(but-3-yn-1-yloxy)benzyl)oxy)-6-((1R,2R)-1,2-dihydroxy-3-(1-phenylcyclopropane-1-carboxamido)propyl)-4-hydroxy-5-(2-hydroxyacetamido)tetrahydro-2H-pyran-2-carboxylic acid] | > 10 | 1 to 10 | 1 to 10 |
| C#CCOCCOCCO[C@]1(C(=O)O)C[C@H](O)[C@@H](NC(=O)CO)[C@H]([C@H](O)[C@H](O)CNC(=O)Cc2ccc(OC)cc2)O1 [Compound 174, (2R,4S,5R,6R)-6-((1R,2R)-1,2-dihydroxy-3-(2-(4-methoxyphenyl)acetamido)propyl)-4-hydroxy-5-(2-hydroxyacetamido)-2-(2-(2-(prop-2-yn-1-yloxy)ethoxy)ethoxy)tetrahydro-2H-pyran-2-carboxylic acid] | 1 to 10 | 1 to 10 | 1 to 10 |
| C#CCOCCOCCO[C@]1(C(=O)O)C[C@H](O)[C@@H](NC(=O)CO)[C@H]([C@H](O)[C@H](O)CNC(=O)Cc2ccc(C)cc2)O1 [Compound 175, (2R,4S,5R,6R)-6-((1R,2R)-1,2-dihydroxy-3-(2-(p-tolyl)acetamido)propyl)-4-hydroxy-5-(2-hydroxyacetamido)-2-(2-(2-(prop-2-yn-1-yloxy)ethoxy)ethoxy)tetrahydro-2H-pyran-2-carboxylic acid] | 1 to 10 | 1 to 10 | 1 to 10 |
| C#CCOCCCCCCO[C@]1(C(=O)O)C[C@H](O)[C@@H](NC(=O)CO)[C@H]([C@H](O)[C@H](O)CNC(=O)Cc2ccc(-c3nnn[nH]3)cc2)O1 [Compound 176, (2R,4S,5R,6R)-6-((1R,2R)-3-(2-(4-(1H-tetrazol-5-yl)phenyl)acetamido)-1,2-dihydroxypropyl)-4-hydroxy-5-(2-hydroxyacetamido)-2-((6-(prop-2-yn-1-yloxy)hexyl)oxy)tetrahydro-2H-pyran-2-carboxylic acid] | < 1 | < 1 | < 1 |
| C#CCOCCOCCO[C@]1(C(=O)O)C[C@H](O)[C@@H](NC(=O)CO)[C@H]([C@H](O)[C@H](O)CNC(=O)Cn2cc(-c3ccccc3)nn2)O1 [Compound 177, (2R,4S,5R,6R)-6-((1R,2R)-1,2-dihydroxy-3-(2-(4-phenyl-1H-1,2,3-triazol-1-yl)acetamido)propyl)-4-hydroxy-5-(2-hydroxyacetamido)-2-(2-(2-(prop-2-yn-1-yloxy)ethoxy)ethoxy)tetrahydro-2H-pyran-2-carboxylic acid] | > 10 | 1 to 10 | 1 to 10 |
| C#CCOCCOCCO[C@@]1(C(=O)O)O[C@@H]([C@H](O)[C@H](O)CNC(=O)Cc2ccc(-c3ccccc3)cc2)[C@H](NC(=O)CO)[C@@H](NC(=O)CC)[C@@H]1O [Compound 178, (2R,3S,4R,5R,6R)-6-((1R,2R)-3-(2-([1,1′-biphenyl]-4-yl)acetamido)-1,2-dihydroxypropyl)-3-hydroxy-5-(2-hydroxyacetamido)-2-(2-(2-(prop-2-yn-1-yloxy)ethoxy)ethoxy)-4-propionamidotetrahydro-2H-pyran-2-carboxylic acid] | > 10 | 1 to 10 | 1 to 10 |
| C#CCOCCOCCO[C@]1(C(=O)O)C[C@H](O)[C@@H](NC(=O)CO)[C@H]([C@H](O)[C@H](O)CNC(=O)c2cc3c(s2)-c2ccccc2OC3)O1 [Compound 179, (2R,4S,5R,6R)-6-((1R,2R)-1,2-dihydroxy-3-(4H-thieno[3,2-c]chromene-2-carboxamido)propyl)-4-hydroxy-5-(2-hydroxyacetamido)-2-(2-(2-(prop-2-yn-1-yloxy)ethoxy)ethoxy)tetrahydro-2H-pyran-2-carboxylic acid] | > 10 | < 1 | 1 to 10 |
| C#CCOCCCCCCO[C@]1(C(=O)O)C[C@H](O)[C@@H](NCC(=O)N(C)C)[C@H]([C@H](O)[C@H](O)CNC(=O)Cc2ccc(Cl)cc2)O1 [Compound 180, (2R,4S,5R,6R)-6-((1R,2R)-3-(2-(4-chlorophenyl)acetamido)-1,2-dihydroxypropyl)-5-((2-(dimethylamino)-2-oxoethyl)amino)-4-hydroxy-2-((6-(prop-2-yn-1-yloxy)hexyl)oxy)tetrahydro-2H-pyran-2-carboxylic acid] | 1 to 10 | > 10 | 1 to 10 |
| C#CCOCCCCCCO[C@]1(C(=O)O)C[C@H](O)[C@@H](NCC(=O)NC)[C@H]([C@H](O)[C@H](O)CNC(=O)Cc2ccc(Cl)cc2)O1 [Compound 181, (2R,4S,5R,6R)-6-((1R,2R)-3-(2-(4-chlorophenyl)acetamido)-1,2-dihydroxypropyl)-4-hydroxy-5-((2-(methylamino)-2-oxoethyl)amino)-2-((6-(prop-2-yn-1-yloxy)hexyl)oxy)tetrahydro-2H-pyran-2-carboxylic acid] | 1 to 10 | 1 to 10 | 1 to 10 |
| C#CCOCCCCCCO[C@]1(C(=O)O)C[C@H](O)[C@@H](NCC(N)=O)[C@H]([C@H](O)[C@H](O)CNC(=O)Cc2ccc(Cl)cc2)O1 [Compound 182, (2R,4S,5R,6R)-5-((2-amino-2-oxoethyl)amino)-6-((1R,2R)-3-(2-(4-chlorophenyl)acetamido)-1,2-dihydroxypropyl)-4-hydroxy-2-((6-(prop-2-yn-1-yloxy)hexyl)oxy)tetrahydro-2H-pyran-2-carboxylic acid] | 1 to 10 | 1 to 10 | 1 to 10 |
| C#CCOCCCCCCO[C@]1(C(=O)O)C[C@H](O)[C@@H](NC(=O)C(C)O)[C@H]([C@H](O)[C@H](O)CNC(=O)Cc2ccc(Cl)cc2)O1 (stereo partly drawn) [Compound 183, (2R,4S,5R,6R)-6-((1R,2R)-3-(2-(4-chlorophenyl)acetamido)-1,2-dihydroxypropyl)-4-hydroxy-5-(2-hydroxypropanamido)-2-((6-(prop-2-yn-1-yloxy)hexyl)oxy)tetrahydro-2H-pyran-2-carboxylic acid] | 1 to 10 | 1 to 10 | < 1 |
| C#CCOCCCCCCO[C@]1(C(=O)O)C[C@H](O)[C@@H](NC(=O)CN)[C@H]([C@H](O)[C@H](O)CNC(=O)Cc2ccc(Cl)cc2)O1 [Compound 184, (2R,4S,5R,6R)-5-(2-aminoacetamido)-6-((1R,2R)-3-(2-(4-chlorophenyl)acetamido)-1,2-dihydroxypropyl)-4-hydroxy-2-((6-(prop-2-yn-1-yloxy)hexyl)oxy)tetrahydro-2H-pyran-2-carboxylic acid] | 1 to 10 | 1 to 10 | 1 to 10 |
